Reference: ChEMBL document CHEMBL3351417, “Thiophene-3-carboxamide analogue of annonaceous acetogenins as antitumor drug lead” (Eur J Med Chem, 2014)

tested on: not listed separately; assay: Growth inhibition of human RXF631L cells after 48 hrs by sulforhodamine B colorimetric assay; type: functional; conditions: RXF 631, 48 h

Structure (SMILES)	GI50
CCCCCCCCCCCC[C@@H](O)[C@H]1CC[C@H]([C@H](O)CCCCCCCCCCNC(=O)c2ccco2)O1	> 100 µM

tested on: not listed separately; assay: Growth inhibition of human SNB78 cells after 48 hrs by sulforhodamine B colorimetric assay; type: functional; conditions: SNB-78, 48 h

Structure (SMILES)	GI50
CCCCCCCCCCCC[C@@H](O)[C@H]1CC[C@H]([C@H](O)CCCCCCCCCCNC(=O)c2ccco2)O1	> 100 µM

tested on: not listed separately; assay: Growth inhibition of human DMS273 cells after 48 hrs by sulforhodamine B colorimetric assay; type: functional; conditions: DMS-273, 48 h

Structure (SMILES)	GI50
CCCCCCCCCCCC[C@@H](O)[C@H]1CC[C@H]([C@H](O)CCCCCCCCCCNC(=O)c2ccco2)O1	39.8 µM

tested on: MCF7; assay: Growth inhibition of human MCF7 cells after 48 hrs by sulforhodamine B colorimetric assay; type: functional; conditions: MCF7, 48 h

GI50	Structure (SMILES)
> 100 µM	CCCCCCCCCCCC[C@@H](O)[C@H]1CC[C@H]([C@H](O)CCCCCCCCCCNC(=O)c2ccco2)O1

tested on: NCI-H23; assay: Growth inhibition of human NCI-H23 cells after 48 hrs by sulforhodamine B colorimetric assay; type: functional; conditions: NCI-H23, 48 h

GI50	Structure (SMILES)
12.9 µM	CCCCCCCCCCCC[C@@H](O)[C@H]1CC[C@H]([C@H](O)CCCCCCCCCCNC(=O)c2ccco2)O1

tested on: not listed separately; assay: Growth inhibition of human MKN1 cells after 48 hrs by sulforhodamine B colorimetric assay; type: functional; conditions: MKN-1, 48 h

Structure (SMILES)	GI50
CCCCCCCCCCCC[C@@H](O)[C@H]1CC[C@H]([C@H](O)CCCCCCCCCCNC(=O)c2ccco2)O1	> 100 µM

tested on: A549; assay: Growth inhibition of human A549 cells after 48 hrs by sulforhodamine B colorimetric assay; type: functional; conditions: A549, 48 h

GI50	Structure (SMILES)
> 100 µM	CCCCCCCCCCCC[C@@H](O)[C@H]1CC[C@H]([C@H](O)CCCCCCCCCCNC(=O)c2ccco2)O1

tested on: SNB-75; assay: Growth inhibition of human SNB75 cells after 48 hrs by sulforhodamine B colorimetric assay; type: functional; conditions: SNB-75, 48 h

Structure (SMILES)	GI50
CCCCCCCCCCCC[C@@H](O)[C@H]1CC[C@H]([C@H](O)CCCCCCCCCCNC(=O)c2ccco2)O1	> 100 µM

tested on: NCI-H522; assay: Growth inhibition of human NCI-H522 cells after 48 hrs by sulforhodamine B colorimetric assay; type: functional; conditions: NCI-H522, 48 h

GI50	Structure (SMILES)
18.2 µM	CCCCCCCCCCCC[C@@H](O)[C@H]1CC[C@H]([C@H](O)CCCCCCCCCCNC(=O)c2ccco2)O1

tested on: NCI-H226; assay: Growth inhibition of human NCI-H226 cells after 48 hrs by sulforhodamine B colorimetric assay; type: functional; conditions: NCI-H226, 48 h

GI50	Structure (SMILES)
97.7 µM	CCCCCCCCCCCC[C@@H](O)[C@H]1CC[C@H]([C@H](O)CCCCCCCCCCNC(=O)c2ccco2)O1

tested on: St-4; assay: Growth inhibition of human St-4 cells after 48 hrs by sulforhodamine B colorimetric assay; type: functional; conditions: St-4, 48 h

Structure (SMILES)	GI50
CCCCCCCCCCCC[C@@H](O)[C@H]1CC[C@H]([C@H](O)CCCCCCCCCCNC(=O)c2ccco2)O1	> 100 µM

tested on: not listed separately; assay: Growth inhibition of human HBC5 cells after 48 hrs by sulforhodamine B colorimetric assay; type: functional; conditions: HBC5, 48 h

Structure (SMILES)	GI50
CCCCCCCCCCCC[C@@H](O)[C@H]1CC[C@H]([C@H](O)CCCCCCCCCCNC(=O)c2ccco2)O1	> 100 µM

tested on: MDA-MB-231; assay: Growth inhibition of human MDA-MB-231 cells after 48 hrs by sulforhodamine B colorimetric assay; type: functional; conditions: MDA-MB-231, 48 h

GI50	Structure (SMILES)
> 100 µM	CCCCCCCCCCCC[C@@H](O)[C@H]1CC[C@H]([C@H](O)CCCCCCCCCCNC(=O)c2ccco2)O1

tested on: KM12; assay: Growth inhibition of human KM12 cells after 48 hrs by sulforhodamine B colorimetric assay; type: functional; conditions: KM12, 48 h

Structure (SMILES)	GI50
CCCCCCCCCCCC[C@@H](O)[C@H]1CC[C@H]([C@H](O)CCCCCCCCCCNC(=O)c2ccco2)O1	> 100 µM

tested on: not listed separately; assay: Growth inhibition of human PC3 cells after 48 hrs by sulforhodamine B colorimetric assay; type: functional; conditions: PC-3, 48 h

Structure (SMILES)	GI50
CCCCCCCCCCCC[C@@H](O)[C@H]1CC[C@H]([C@H](O)CCCCCCCCCCNC(=O)c2ccco2)O1	> 100 µM

tested on: not listed separately; assay: Growth inhibition of human OVCAR3 cells after 48 hrs by sulforhodamine B colorimetric assay; type: functional; conditions: OVCAR-3, 48 h

Structure (SMILES)	GI50
CCCCCCCCCCCC[C@@H](O)[C@H]1CC[C@H]([C@H](O)CCCCCCCCCCNC(=O)c2ccco2)O1	> 100 µM

tested on: not listed separately; assay: Growth inhibition of human MKN74 cells after 48 hrs by sulforhodamine B colorimetric assay; type: functional; conditions: MKN-74, 48 h

Structure (SMILES)	GI50
CCCCCCCCCCCC[C@@H](O)[C@H]1CC[C@H]([C@H](O)CCCCCCCCCCNC(=O)c2ccco2)O1	1.7 µM

tested on: HT-29; assay: Growth inhibition of human HT-29 cells after 48 hrs by sulforhodamine B colorimetric assay; type: functional; conditions: HT-29, 48 h

GI50	Structure (SMILES)
> 100 µM	CCCCCCCCCCCC[C@@H](O)[C@H]1CC[C@H]([C@H](O)CCCCCCCCCCNC(=O)c2ccco2)O1

tested on: not listed separately; assay: Growth inhibition of human HBC4 cells after 48 hrs by sulforhodamine B colorimetric assay; type: functional; conditions: HBC4, 48 h

Structure (SMILES)	GI50
CCCCCCCCCCCC[C@@H](O)[C@H]1CC[C@H]([C@H](O)CCCCCCCCCCNC(=O)c2ccco2)O1	> 100 µM

tested on: not listed separately; assay: Growth inhibition of human HCC2998 cells after 48 hrs by sulforhodamine B colorimetric assay; type: functional; conditions: HCC 2998, 48 h

Structure (SMILES)	GI50
CCCCCCCCCCCC[C@@H](O)[C@H]1CC[C@H]([C@H](O)CCCCCCCCCCNC(=O)c2ccco2)O1	> 100 µM

tested on: not listed separately; assay: Growth inhibition of human HCT15 cells after 48 hrs by sulforhodamine B colorimetric assay; type: functional; conditions: HCT-15, 48 h

Structure (SMILES)	GI50
CCCCCCCCCCCC[C@@H](O)[C@H]1CC[C@H]([C@H](O)CCCCCCCCCCNC(=O)c2ccco2)O1	> 100 µM

tested on: SF-268; assay: Growth inhibition of human SF268 cells after 48 hrs by sulforhodamine B colorimetric assay; type: functional; conditions: SF-268, 48 h

Structure (SMILES)	GI50
CCCCCCCCCCCC[C@@H](O)[C@H]1CC[C@H]([C@H](O)CCCCCCCCCCNC(=O)c2ccco2)O1	> 100 µM

tested on: DU-145; assay: Growth inhibition of human DU145 cells after 48 hrs by sulforhodamine B colorimetric assay; type: functional; conditions: DU-145, 48 h

GI50	Structure (SMILES)
> 100 µM	CCCCCCCCCCCC[C@@H](O)[C@H]1CC[C@H]([C@H](O)CCCCCCCCCCNC(=O)c2ccco2)O1

tested on: not listed separately; assay: Growth inhibition of human LOXIMVI cells after 48 hrs by sulforhodamine B colorimetric assay; type: functional; conditions: LOX IMVI

Structure (SMILES)	GI50
CCCCCCCCCCCC[C@@H](O)[C@H]1CC[C@H]([C@H](O)CCCCCCCCCCNC(=O)c2ccco2)O1	17 µM

tested on: not listed separately; assay: Growth inhibition of human MKN28 cells after 48 hrs by sulforhodamine B colorimetric assay; type: functional; conditions: MKN-28, 48 h

Structure (SMILES)	GI50
CCCCCCCCCCCC[C@@H](O)[C@H]1CC[C@H]([C@H](O)CCCCCCCCCCNC(=O)c2ccco2)O1	0.617 µM

tested on: not listed separately; assay: Growth inhibition of human SF295 cells after 48 hrs by sulforhodamine B colorimetric assay; type: functional; conditions: SF-295, 48 h

Structure (SMILES)	GI50
CCCCCCCCCCCC[C@@H](O)[C@H]1CC[C@H]([C@H](O)CCCCCCCCCCNC(=O)c2ccco2)O1	33.9 µM

tested on: NCI-H460; assay: Growth inhibition of human NCI-H460 cells after 48 hrs by sulforhodamine B colorimetric assay; type: functional; conditions: NCI-H460, 48 h

GI50	Structure (SMILES)
18.2 µM	CCCCCCCCCCCC[C@@H](O)[C@H]1CC[C@H]([C@H](O)CCCCCCCCCCNC(=O)c2ccco2)O1

tested on: SK-OV-3; assay: Growth inhibition of human SKOV3 cells after 48 hrs by sulforhodamine B colorimetric assay; type: functional; conditions: SK-OV-3, 48 h

GI50	Structure (SMILES)
> 100 µM	CCCCCCCCCCCC[C@@H](O)[C@H]1CC[C@H]([C@H](O)CCCCCCCCCCNC(=O)c2ccco2)O1

tested on: not listed separately; assay: Growth inhibition of human SF539 cells after 48 hrs by sulforhodamine B colorimetric assay; type: functional; conditions: SF-539, 48 h

Structure (SMILES)	GI50
CCCCCCCCCCCC[C@@H](O)[C@H]1CC[C@H]([C@H](O)CCCCCCCCCCNC(=O)c2ccco2)O1	81.3 µM

tested on: not listed separately; assay: Growth inhibition of human OVCAR8 cells after 48 hrs by sulforhodamine B colorimetric assay; type: functional; conditions: OVCAR-8, 48 h

Structure (SMILES)	GI50
CCCCCCCCCCCC[C@@H](O)[C@H]1CC[C@H]([C@H](O)CCCCCCCCCCNC(=O)c2ccco2)O1	> 100 µM

tested on: ACHN; assay: Growth inhibition of human ACHN cells after 48 hrs by sulforhodamine B colorimetric assay; type: functional; conditions: not given

GI50	Structure (SMILES)
> 100 µM	CCCCCCCCCCCC[C@@H](O)[C@H]1CC[C@H]([C@H](O)CCCCCCCCCCNC(=O)c2ccco2)O1

tested on: not listed separately; assay: Growth inhibition of human DMS114 cells after 48 hrs by sulforhodamine B colorimetric assay; type: functional; conditions: DMS-114, 48 h

Structure (SMILES)	GI50
CCCCCCCCCCCC[C@@H](O)[C@H]1CC[C@H]([C@H](O)CCCCCCCCCCNC(=O)c2ccco2)O1	0.282 µM

tested on: not listed separately; assay: Growth inhibition of human HCT116 cells after 48 hrs by sulforhodamine B colorimetric assay; type: functional; conditions: HCT-116, 48 h

Structure (SMILES)	GI50
CCCCCCCCCCCC[C@@H](O)[C@H]1CC[C@H]([C@H](O)CCCCCCCCCCNC(=O)c2ccco2)O1	7.76 µM

tested on: not listed separately; assay: Growth inhibition of human OVCAR5 cells after 48 hrs by sulforhodamine B colorimetric assay; type: functional; conditions: OVCAR-5, 48 h

Structure (SMILES)	GI50
CCCCCCCCCCCC[C@@H](O)[C@H]1CC[C@H]([C@H](O)CCCCCCCCCCNC(=O)c2ccco2)O1	> 100 µM

tested on: not listed separately; assay: Growth inhibition of human BSY1 cells after 48 hrs by sulforhodamine B colorimetric assay; type: functional; conditions: BSY-1, 48 h

Structure (SMILES)	GI50
CCCCCCCCCCCC[C@@H](O)[C@H]1CC[C@H]([C@H](O)CCCCCCCCCCNC(=O)c2ccco2)O1	0.49 µM

tested on: not listed separately; assay: Growth inhibition of human MKN7 cells after 48 hrs by sulforhodamine B colorimetric assay; type: functional; conditions: MKN-7, 48 h

Structure (SMILES)	GI50
CCCCCCCCCCCC[C@@H](O)[C@H]1CC[C@H]([C@H](O)CCCCCCCCCCNC(=O)c2ccco2)O1	0.832 µM

tested on: not listed separately; assay: Growth inhibition of human MKN45 cells after 48 hrs by sulforhodamine B colorimetric assay; type: functional; conditions: MKN-45, 48 h

Structure (SMILES)	GI50
CCCCCCCCCCCC[C@@H](O)[C@H]1CC[C@H]([C@H](O)CCCCCCCCCCNC(=O)c2ccco2)O1	> 100 µM

tested on: not listed separately; assay: Growth inhibition of human OVCAR4 cells after 48 hrs by sulforhodamine B colorimetric assay; type: functional; conditions: OVCAR-4, 48 h

Structure (SMILES)	GI50
CCCCCCCCCCCC[C@@H](O)[C@H]1CC[C@H]([C@H](O)CCCCCCCCCCNC(=O)c2ccco2)O1	15.8 µM

tested on: U-251; assay: Growth inhibition of human U251 cells after 48 hrs by sulforhodamine B colorimetric assay; type: functional; conditions: U-251, 48 h

GI50	Structure (SMILES)
> 100 µM	CCCCCCCCCCCC[C@@H](O)[C@H]1CC[C@H]([C@H](O)CCCCCCCCCCNC(=O)c2ccco2)O1
